# Patent US20070111966A1, “Method for the treatment and/or prevention of urinary disorders” (priority 2005, published 2007)
# What was measured:
# [1] = system: Sprague-Dawley rats; experiment: Example 1: consumption of drink after oral gavage of diuretic polyols; type: in vivo; conditions: for water consumption compared with the control (in words): after polyol gavage; for water consumption over four days: control batch A 11.2
# Method: (§1) A batch of rats were orally administered doses of diuretic polyols so as to measure the diuretic effect of said polyols and their possible influence on the amount of water drunk. The study was carried out on a batch of thirty rats, for 4 days, and the trial doses were administered at a rate of 2 ml per animal and per day of solutions at 250 g/litre of polyols. Water is distributed to the animals ad libitum. The amounts of urine output and of drink consumed are measured by weighing.
# (§2) The amounts of drink are expressed in grams per animal and per day. Diuresis is expressed in millilitres as a function of time. • Batch A: control batch • Batch B: erythritol gavage • Batch C: mannitol gavage • Batch D: isosorbide gavage • Batch E: 1/1 isosorbide-mannitol mixture
# Consumption of Drink (Means on Ten Rats)
# [2] = system: Sprague-Dawley rats; experiment: Example 1: diuresis after oral gavage of diuretic polyols; type: in vivo; conditions: for Diuresis 45 min / Diuresis 1 h 35 min / Diuresis 3 h / Diuresis 5 h / Diuresis 7 h / Cumulative diuresis over 24 h / Diuresis Before gavage: means on ten rats; for Diuresis 45 min: control A 0.9; for Diuresis 1 h 35 min / Diuresis 7 h: control A 0.6; for Diuresis 3 h: control A 0.4; for Diuresis 5 h: control A 0.7; for Cumulative diuresis over 24 h: control A 11.7; for Diuresis Before gavage: control A 3.2
# Method: as §1, §2
# Diuresis (Means on Ten Rats, in Millilitres)
# [3] = gavage 2 ml per animal and per day of 250 g/litre solution, means on ten rats
Structure (SMILES),water consumption compared with the control (in words) [1],"water consumption ([1]; gavage 2 ml per animal and per day of 250 g/litre solution, means on ten rats, control batch A 24.8) [g/animal/day]",Diuresis 45 min [2] [millilitres],Diuresis 1 h 35 min [2] [millilitres],Diuresis 3 h [2] [millilitres],Diuresis 5 h [2] [millilitres],Diuresis 7 h [2] [millilitres],Cumulative diuresis over 24 h [2] [millilitres],time from which an increase in diuresis is observed ([2]; after gavage) [h],Diuresis Before gavage [2] [millilitres],"water consumption over four days [1, 3] [g/animal/day]"
"OC[C@@H](O)[C@@H](O)CO [B (erythritol), erythritol]",not greater than the control,17.9,0.21,0.99,1.38,1.21,0.83,18.43,≥ 3,1.02,
"OC[C@@H](O)[C@@H](O)[C@H](O)[C@H](O)CO [C (mannitol), mannitol]",very slightly greater than the control,,0.3,0.3,0.7,0.5,1.3,16.5,,3.0,13.9
"O[C@@H]1CO[C@H]2[C@@H]1OC[C@@H]2O [D (isosorbide), isosorbide]",very slightly greater than the control,,1.5,1.1,1.2,1.1,0.6,13.0,,2.4,13.1
